Entries after “also recorded” stand apart in the source; their conditions may differ. Where no end group is shown, it is not given here.
Columns and labels:
plasma kallikrein = target: T1, plasma kallikrein (Homo sapiens, UniProt P03952); experiment: Cleavage of recombinant human LAP by plasma kallikrein, Western blot semi-quantitative analysis; assay type: biochemical; details: Example 3, peptide 2.5 mg/ml, 37° C., 40 minutes, FIG. 6
T1 construct: purchased SIGMA
Procedure: When 2 μg of recombinant human LAP R & D) (final concentration: 66 μg/ml) was incubated with plasma kallikrein (SIGMA; final concentration of 20 μg/ml), QP peptide, QPA peptide, T200 peptide, and QPQ peptide (SEQ ID NO: 4) were added thereto at a final concentration of 2.5 mg/ml, followed by incubation at 37° C. for 40 minutes. Thereafter, electrophoresis (room temperature, 27 mA, 50 minutes) was carried out using 13.5% polyacrylamide gel, so as to separate LAP (molecular weight: 41 kDa), a LAP degradation product (molecular weight: 38 kDa), and BSA (final concentration: 0.3 mg/ml; molecular weight: […]) used as an additive. Each separated protein or decomposed product was transferred onto a PVDF membrane by using a semi-dry transferring apparatus. According to the method of Akita et al. (Gastroenterology 123; 352-364, 2002), the membrane was then incubated first with a mouse anti-LAP monoclonal antibody (R & D) at a final concentration of 5 μg/ml or a mouse anti-L59 cleavage section-recognizing monoclonal antibody (homemade; International Publication WO2005/023870) at a final concentration of 20 μg/ml, at room temperature for 60 minutes, and then with a horseradish peroxidase-conjugated goat anti-mouse second antibody (Jackson ImmunoResearch Laboratories) at a final concentration of 1 μg/ml at room temperature for 60 minutes. Bands were then developed using an ECL plus reagent (GE Healthcare), so as to carry out the semi-quantitative analysis of the influence of each peptide on the attenuation of LAP band and the generation of LAP degradation product (FIG. 6).

hepatic stellate cells = experiment: Transformation (activation) of cultured hepatic stellate cells on a plastic dish, observed under a microscope; assay type: cell-based, rat; details: for suppression of activation of hepatic stellate cells (morphological change with disappearance of vitamin A-containing oil droplets): Example 1, peptide 1 mM, FIG. 2; for suppression of activation of hepatic stellate cells (morphological change with disappearance of oil droplets containing vitamin A): Example 4, peptide 0.5 mM, FIG. 7
Procedure: According to the method previously reported (Okuno M. et al., Gastroenterology 2001; 120: 1784-1800), hepatic stellate cells were isolated from the liver of male Wistar rats (body weight: 350 to 400 g; Japan Clea), and the isolated cells were then seeded in a concentration of 1×10^6 cells/dish on a 3.5-cm culture plastic dish. Thereafter, the cells were cultured in 1 ml of Dulbecco's modified Eagle medium (DMEM; manufactured by SIGMA) containing 10% fetal calf serum (FCS; manufactured by GIBCO).
From day one of isolation of hepatic stellate cells, they were cultured for 7 days with the following peptides added in the medium; QP peptide (Gln-Ile-Leu-Ser-Lys-Leu-Arg-Leu-Ala-Ser-Pro) (SEQ ID NO: 9); QPA peptide (Gln-Ile-Leu-Ser-Ala-Ala-Ala-Leu-Ala-Ser-Pro) (SEQ ID NO: 10); and a control synthetic peptide consisting of 11 amino acids that is derived from a latent TGF-β1 LAP sequence (Thr-Gly-Val-Val-Arg-Gln-Trp-Leu-Ser-Arg-Gly; this is referred to as T200 peptide) (SEQ ID NO: 11) (please refer to FIG. 1), however anticipated not to influence TGF-β activation reaction because of the sequence being apart from the TGF-β activation control region (Gly51 to Arg110) discovered by the present inventors (International Publication WO2005/023870). […] Influence of each peptide on transformation of hepatic stellate cells (which is also referred to as activation of hepatic stellate cells) induced by culturing them on the plastic dish was observed under a microscope.
A 60 mM aqueous stock solution of each peptide was prepared, and the peptide was then dissolved in a medium to make a final concentration of 1 mM. Until the 3rd day of isolation, the aforementioned cells were treated in a DMEM medium containing 10% FCS. On the 4th day, the medium was exchanged with serum free DMEM containing 0.1% bovine serum albumin (BSA) and each peptide with a final concentration of 1 mM, and the culture was further continued for 2 to 4 days. Thereafter, the culture medium was collected as a conditioned medium, and the amount of active TGF-β1 present in the conditioned medium was measured using an ELISA kit manufactured by PROMEGA. At the same time, the state of the cells was observed under a microscope (DMIRB; manufactured by Leica) and was then photographed.
In accordance with the method described in Example 1, the influence of each of the QP peptide, QPA peptide, QPQ peptide and T200 peptide on transformation of the cultured hepatic stellate cells, which occurs by culturing cells on a plastic dish, was observed.
Each peptide was dissolved in a medium to a final concentration of 0.5 mM (approximately 500 μg/ml). At the 1st day of isolation, the aforementioned cells were treated in a DMEM medium containing 10% FCS. On the 2nd day, the medium was changed with serum free DMEM containing 0.1% BSA and each peptide at a final concentration of 0.5 mM, and the culture was further continued for 2 to 7 days. Thereafter, the culture medium was collected as a conditioned medium, and the amount of active TGF-β1 present in the conditioned medium was then quantitated using an ELISA kit manufactured by PROMEGA. At the same time, the state of the cells was observed under a microscope (DMIRB; manufactured by Leica) and photographed.

T1 sequence (P03952 20-638, species assumed): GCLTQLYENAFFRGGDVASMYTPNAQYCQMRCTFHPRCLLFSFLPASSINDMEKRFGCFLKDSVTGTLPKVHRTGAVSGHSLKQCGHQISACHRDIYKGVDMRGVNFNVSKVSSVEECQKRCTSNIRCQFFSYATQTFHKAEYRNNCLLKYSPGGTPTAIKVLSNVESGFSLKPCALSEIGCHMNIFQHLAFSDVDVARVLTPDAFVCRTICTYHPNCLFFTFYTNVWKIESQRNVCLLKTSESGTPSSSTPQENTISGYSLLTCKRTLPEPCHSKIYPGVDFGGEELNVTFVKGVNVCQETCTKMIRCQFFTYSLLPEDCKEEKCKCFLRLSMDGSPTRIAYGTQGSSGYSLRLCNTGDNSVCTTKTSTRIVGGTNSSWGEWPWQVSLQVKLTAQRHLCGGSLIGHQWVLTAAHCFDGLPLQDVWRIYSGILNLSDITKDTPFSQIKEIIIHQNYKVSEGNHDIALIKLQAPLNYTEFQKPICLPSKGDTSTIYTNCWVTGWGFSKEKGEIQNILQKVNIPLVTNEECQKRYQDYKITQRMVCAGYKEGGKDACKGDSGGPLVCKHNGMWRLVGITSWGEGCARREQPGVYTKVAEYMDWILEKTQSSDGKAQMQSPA

inhibition of LAP cleavage reaction (attenuation of LAP band, generation of LAP degradation product) (plasma kallikrein)	Substance	suppression of activation of hepatic stellate cells (morphological change with disappearance of vitamin A-containing oil droplets) (hepatic stellate cells)	suppression of activation of hepatic stellate cells (morphological change with disappearance of oil droplets containing vitamin A) (hepatic stellate cells)
only a weak inhibitory effect	N-52QILSAAAAASP62-C (QILSAAALASP) [QPA peptide, mutant of QP peptide with Lys56, Leu57, Arg58 and Leu59 substituted with Ala]	significantly suppressed	significantly suppressed
more strongly than the QP peptide	N-52QILSQQQQASP62-C [QPQ peptide, mutant of QP peptide with Lys56, Leu57, Arg58 and Leu59 substituted with Gln]	–	significantly suppressed; also recorded: strongest suppressing effect
significantly inhibited	QILSKLRLASP [QP peptide]	weakly suppressing effect	significantly suppressed
only a weak inhibitory effect	TGVVRQWLSRG [T200 peptide, reference compound]	did not exhibit such a suppressing effect	did not exhibit such a suppressing effect

— patent US7732401B2, “Inhibitor of TGF-β activation reaction” (Riken, priority 2007, dated 2010)
